According to PMC12069340 (Frontiers in Cellular and Infection Microbiology, 2025):
Counter-ions that a name gives are not always drawn. Like-named read-outs stand apart in the source and are kept apart here.

How the values were obtained:
[1] = system: A/PuertoRico/8/1934 (H1N1) virus; experiment: microbe, parasite or virus in culture; assay type: cell-based, influenza A virus
[2] = in vitro; details: human, Relative Viability (%)
[3] = Influenza A virus, H1N1, U-937, 48 h; read-out: NA Inhibition (%)
[4] = Influenza A virus, H1N1, U-937, 48 h, read-out: NA Inhibition (%)

`N=C(N)NC(=O)Cc1c(Cl)cccc1Cl` [Guanfacine Hydrochloride] gave an inhibition at 20 µM [1, 3] of 11% and a viability at 20 µM [2] of 102%.

Work on `C[N+](C)(C)CCCCCC[N+](C)(C)C` [Hexamethonium Bromide] yielded an inhibition at 20 µM [1, 3] of -10.2% and a viability at 20 µM [2] of 104%.

In the case of `NCCc1c[nH]cn1` [Histamine Phosphate], the “NA Inhibition (%)” value ([1]; 20 µM) is reported as -2.9 and the viability at 20 µM [2] is reported as 98.9%.

`CN1CCC(=C2c3ccccc3CC(=O)c3sccc32)CC1` [Ketotifen Fumarate] showed an inhibition at 20 µM [1, 3] of -4.7% and a viability at 20 µM [2] of 108%.

For `CC(CCc1ccccc1)NCC(O)c1ccc(O)c(C(N)=O)c1` (stereo not shown) [Labetalol HCl], the inhibition at 20 µM [1, 4] was -17.2% and the viability at 20 µM [2] was 101%.

Work on `OC[C@@H](O)CN1CCN(c2ccccc2)CC1` [Levodropropizine] yielded an inhibition at 20 µM [1, 3] of 35.7% and a viability at 20 µM [2] of 104%.

`CCN1CCC[C@H]1CNC(=O)c1cc(S(N)(=O)=O)ccc1OC` [Levosulpiride] gave an inhibition at 20 µM [1, 3] of 2.8% and a viability at 20 µM [2] of 104%.

In the case of `CN(C)C(=O)C(CCN1CCC(O)(c2ccc(Cl)cc2)CC1)(c1ccccc1)c1ccccc1` [Loperamide HCl], the inhibition at 20 µM [1, 4] is reported as 23.2% and the viability at 20 µM [2] is reported as 116%.

`C[C@](N)(Cc1ccc(O)c(O)c1)C(=O)O` [Methyldopa] showed an inhibition at 20 µM [1, 4] of -13.4% and a viability at 20 µM [2] of 104%.

Molecule `COCCc1ccc(OCC(O)CNC(C)C)cc1` (stereo not shown) [Metoprolol Tartrate] has an inhibition at 20 µM [1, 4] of -24.2% and a viability at 20 µM [2] of 106%.

`CN1CCN2c3ccccc3Cc3ccccc3C2C1` (stereo not shown) [Mianserin HCl] showed an inhibition at 20 µM [1, 3] of 26.3% and a viability at 20 µM [2] of 91.9%.

Molecule `Nc1nc(CC(=O)Nc2ccc(CCNC[C@H](O)c3ccccc3)cc2)cs1` [Mirabegron] has an inhibition at 20 µM [1, 4] of -9.6% and a viability at 20 µM [2] of 102%.

`CCOc1cc(N)c(Cl)cc1C(=O)NCC1CN(Cc2ccc(F)cc2)CCO1` (stereo not shown) [Mosapride Citrate] showed an inhibition at 20 µM [1, 3] of 32.4% and a viability at 20 µM [2] of 112%.

With `CN[C@H](CC(=O)O)C(=O)O` [NMDA (N-Methyl-D-aspartic acid), N-Methyl-D-aspartic acid] the inhibition at 20 µM [1, 4] was -15.5% and the viability at 20 µM [2] was 113%.

Molecule `COc1ccccc1N1CCN(CC(O)COc2cccc3ccccc23)CC1` (stereo not shown) [Naftopidil] has an inhibition at 20 µM [1, 4] of 13.4% and a viability at 20 µM [2] of 102%.

Work on `O=C1CC[C@@]2(O)[C@H]3Cc4ccc(O)c5c4[C@@]2(CCN3CC2CC2)[C@H]1O5` [Naltrexone HCl] yielded an inhibition at 20 µM [1, 4] of 10.1% and a viability at 20 µM [2] of 107%.

`CNS(=O)(=O)CCc1ccc2[nH]cc(C3CCN(C)CC3)c2c1` [Naratriptan] showed an inhibition at 20 µM [1, 3] of 5.8% and a viability at 20 µM [2] of 102%.

`Cc1cccc(C)c1NC(=O)CN1CCCC1=O` [Nefiracetam] showed an inhibition at 20 µM [1, 3] of 6% and a viability at 20 µM [2] of 105%.

Molecule `CN(C)C(=O)Oc1cccc([N+](C)(C)C)c1` [Neostigmine Bromide] has an inhibition at 20 µM [1, 3] of 2% and a viability at 20 µM [2] of 114%.

In the case of `CCN(Cc1ccc(Cl)nc1)/C(=C/[N+](=O)[O-])NC` [Nitenpyram], the inhibition at 20 µM [1, 3] is reported as -32.4% and the viability at 20 µM [2] is reported as 110%.

`CN(C)CC/C=C1/c2ccccc2COc2ccc(CC(=O)O)cc21` [Olopatadine HCl] showed an inhibition at 20 µM [1, 3] of -11.6% and a viability at 20 µM [2] of 122%.

Work on `CCN(CC)CC#CCOC(=O)C(O)(c1ccccc1)C1CCCCC1` (stereo not shown) [Oxybutynin] yielded an inhibition at 20 µM [1, 4] of -3.6% and a viability at 20 µM [2] of 104%.

Work on `Cc1cc(C(C)(C)C)c(O)c(C)c1CC1=NCCN1` [Oxymetazoline hydrochloride] yielded an inhibition at 20 µM [1, 4] of -21% and a viability at 20 µM [2] of 113%.

`Cc1nc2n(c(=O)c1CCN1CCC(c3noc4cc(F)ccc34)CC1)CCCC2O` (stereo not shown) [Paliperidone] gave an inhibition at 20 µM [1, 3] of 9.3% and a viability at 20 µM [2] of 110%.

`O=C1c2cccc3c2[C@H](CCC3)CN1[C@@H]1CN2CCC1CC2` [Palonosetron HCl] showed an inhibition at 20 µM [1, 3] of -5.5% and a viability at 20 µM [2] of 102%.

`Cc1cccn2c(=O)c(-c3nnn[nH]3)cnc12` [Pemirolast potassium] gave an inhibition at 20 µM [1, 3] of -23.7% and a viability at 20 µM [2] of 108%.

`N#Cc1ccccc1-c1cc(-c2ccccn2)cn(-c2ccccc2)c1=O` [Perampanel] showed an inhibition at 20 µM [1, 3] of -30.9% and a viability at 20 µM [2] of 98.8%.

Molecule `CC(C)COc1ccc(CNC(=O)N(Cc2ccc(F)cc2)C2CCN(C)CC2)cc1` [Pimavanserin] has an inhibition at 20 µM [1, 3] of 18.1% and a viability at 20 µM [2] of 113%.

For `CCCN[C@H]1CCc2nc(N)sc2C1` [Pramipexole dihydrochloride monohydrate], the “NA Inhibition (%)” value ([1]; 20 µM) was 2.6 and the viability at 20 µM [2] was 100%.

For `COc1cc2nc(N3CCN(C(=O)c4ccco4)CC3)nc(N)c2cc1OC` [Prazosin HCl], the inhibition at 20 µM [1, 3] was -45.6% and the viability at 20 µM [2] was 76.9%.

For `CN(C)C(=O)Oc1ccc[n+](C)c1` [Pyridostigmine Bromide], the inhibition at 20 µM [1, 3] was -34.1% and the viability at 20 µM [2] was 88.2%.

For `OCCOCCN1CCN(C2=Nc3ccccc3Sc3ccccc32)CC1` [Quetiapine Fumarate], the inhibition at 20 µM [1, 4] was -29.1% and the viability at 20 µM [2] was 104%.

For `CNC(=C[N+](=O)[O-])NCCSCc1ccc(CN(C)C)o1` [Ranitidine], the inhibition at 20 µM [1, 3] was -11.1% and the viability at 20 µM [2] was 109%.

`CCN(C)C(=O)Oc1cccc([C@H](C)N(C)C)c1` [Rivastigmine Tartrate] showed an inhibition at 20 µM [1, 3] of -0.2% and a viability at 20 µM [2] of 116%.

`CN(C)CCc1c[nH]c2ccc(Cn3cncn3)cc12` [Rizatriptan Benzoate] showed an inhibition at 20 µM [1, 3] of 7.7% and a viability at 20 µM [2] of 106%.

For `C=CC[N+]1([C@H]2C[C@H]3[C@@H]4CC[C@H]5C[C@H](O)[C@@H](N6CCOCC6)C[C@]5(C)[C@H]4CC[C@]3(C)[C@H]2OC(C)=O)CCCC1` [Rocuronium Bromide], the inhibition at 20 µM [1, 3] was 16.7% and the viability at 20 µM [2] was 106%.

With `COc1cc2c(cc1OC)[C@@H]1Cc3ccc(OC)c(OC)c3CN1CC2` [Rotundine] the inhibition at 20 µM [1, 3] was 17.4% and the viability at 20 µM [2] was 112%.

`C[C@H](Cc1cc2c(c(C(N)=O)c1)N(CCCO)CC2)NCCOc1ccccc1OCC(F)(F)F` [Silodosin] showed an inhibition at 20 µM [1, 4] of -41.7% and a viability at 20 µM [2] of 115%.

For `O=C(O[C@H]1CN2CCC1CC2)N1CCc2ccccc2[C@@H]1c1ccccc1` [Solifenacin succinate], the inhibition at 20 µM [1, 3] was 22.6% and the viability at 20 µM [2] was 102%.

For `CNCC(O)c1ccc(O)cc1` (stereo not shown) [Synephrine], the inhibition at 20 µM [1, 4] was 12.3% and the viability at 20 µM [2] was 90.5%.

With `COc1cc2nc(N3CCN(C(=O)C4CCCO4)CC3)nc(N)c2cc1OC` (stereo not shown) [Terazosin] the inhibition at 20 µM [1, 3] was -47.2% and the viability at 20 µM [2] was 87.8%.

`CC(C)(C)NCC(O)c1cc(O)cc(O)c1` (stereo not shown) [Terbutaline Sulfate] gave an inhibition at 20 µM [1, 4] of 39.1% and a viability at 20 µM [2] of 101%.

Work on `Cc1ccsc1C(=CCCN1CCC[C@@H](C(=O)O)C1)c1sccc1C` [Tiagabine] yielded an inhibition at 20 µM [1, 3] of 14.2% and a viability at 20 µM [2] of 95.7%.

Work on `CC(C)(C)NC[C@H](O)COc1nsnc1N1CCOCC1` [Timolol Maleate] yielded an inhibition at 20 µM [1, 4] of 33.2% and a viability at 20 µM [2] of 91.2%.

`Clc1ccc2nsnc2c1NC1=NCCN1` [Tizanidine HCl] gave an inhibition at 20 µM [1, 4] of -28.3% and a viability at 20 µM [2] of 78.9%.

`c1ccc(CC2=NCCN2)cc1` [Tolazoline HCl] gave an inhibition at 20 µM [1, 3] of 14.5% and a viability at 20 µM [2] of 86%.

Work on `CCC(COC(=O)c1cc(OC)c(OC)c(OC)c1)(c1ccccc1)N(C)C` (stereo not shown) [Trimebutine] yielded an inhibition at 20 µM [1, 4] of 43.7% and a viability at 20 µM [2] of 108%.

In the case of `CN(C)CCN(Cc1ccccc1)c1ccccn1` [Tripelennamine HCl], the inhibition at 20 µM [1, 3] is reported as -0.2% and the viability at 20 µM [2] is reported as 105%.

Work on `CN1[C@@H]2CC[C@H]1C[C@@H](OC(=O)c1c[nH]c3ccccc13)C2` [Tropisetron] yielded an inhibition at 20 µM [1, 3] of 55.4% and a viability at 20 µM [2] of 80.9%.

Work on `CCCC(CCC)C(=O)O` [Valproic acid sodium salt] yielded an inhibition at 20 µM [1, 3] of -18.5% and a viability at 20 µM [2] of 113%.
